Assays:
Assay type in all cases: cell-based
KV2.1 = target: T1, KV2.1 (Homo sapiens, UniProt Q14721); test: Selectivity, HiClamp Xenopus laevis heterologous expression system, KV2.1
T1 sequence (Q14721 1-858): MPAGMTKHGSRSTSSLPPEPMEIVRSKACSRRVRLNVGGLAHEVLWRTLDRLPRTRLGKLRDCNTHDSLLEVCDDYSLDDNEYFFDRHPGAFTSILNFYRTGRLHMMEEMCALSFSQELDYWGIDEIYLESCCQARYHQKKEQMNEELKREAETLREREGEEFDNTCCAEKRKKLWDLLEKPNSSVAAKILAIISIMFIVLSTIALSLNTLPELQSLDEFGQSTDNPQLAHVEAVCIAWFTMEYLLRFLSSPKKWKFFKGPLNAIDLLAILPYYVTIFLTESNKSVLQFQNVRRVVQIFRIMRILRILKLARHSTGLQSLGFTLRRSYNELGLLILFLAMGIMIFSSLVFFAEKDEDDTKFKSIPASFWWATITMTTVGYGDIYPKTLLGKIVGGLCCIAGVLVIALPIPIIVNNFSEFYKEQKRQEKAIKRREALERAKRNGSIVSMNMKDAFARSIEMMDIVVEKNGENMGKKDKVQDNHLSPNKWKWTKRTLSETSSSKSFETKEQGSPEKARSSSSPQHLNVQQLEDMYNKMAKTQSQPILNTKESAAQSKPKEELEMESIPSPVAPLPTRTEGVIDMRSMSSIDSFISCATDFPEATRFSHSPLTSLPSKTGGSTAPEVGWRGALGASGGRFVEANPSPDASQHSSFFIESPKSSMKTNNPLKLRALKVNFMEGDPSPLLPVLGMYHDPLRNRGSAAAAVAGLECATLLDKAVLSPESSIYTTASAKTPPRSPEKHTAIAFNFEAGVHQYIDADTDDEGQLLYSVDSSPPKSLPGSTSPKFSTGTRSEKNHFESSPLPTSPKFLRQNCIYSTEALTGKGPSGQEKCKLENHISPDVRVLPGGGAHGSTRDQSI
Description: (§1) Ion channels (Kv1.x, Kv2.1, Kv4.2, Kv10.1) were expressed in Xenopus laevis oocytes by linearization of the plasmids and subsequent in vitro transcription using a commercial T7 or SP6 mMESSAGE mMACHINE transcription kit (Ambion, Carlsbad, California, USA). Defolliculated Xenopus oocytes were then injected with 20–50 nL of the cRNA at a concentration of 1 ng/nL using a micro-injector (Drummond Scientific1, Broomall, PA, USA). The oocytes were incubated in a solution containing (in mM): NaCl, 96; KCl, 2; CaCl2, 1.8; MgCl2, 2 and HEPES, 5 (pH 7.5), supplemented with 50 mg/L gentamycin sulfate and 90 mg/L theophylline. After ex vivo translation, the ion channels were correctly inserted in the cell membrane of the oocytes.
(§2) Two-electrode voltage-clamp recordings were performed at room temperature (18–22 °C) using a Geneclamp 500 amplifier (Molecular Devices, San Jose, CA, USA) and pClamp data acquisition (Axon Instruments, Union City, CA, USA) and using an integrated digital TEVC amplifier controlled by HiClamp, an automated Voltage-Clamp Screening System (Multi Channel Systems MCS GmbH, Reutlingen, Germany). Whole-cell currents from oocytes were recorded 1–4 days after injection. The bath solution composition was ND96 (in mM): NaCl, 96; KCl, 2; CaCl2, 1.8; MgCl2, 2 and HEPES, 5 (pH 7.5). Voltage and current electrodes were filled with a 3 M solution of KCl in H2O. […]
(§3) For the electrophysiological analysis of the compounds, a number of protocols were applied from a holding potential of −90 mV. […] The concentration dependency of all compounds was assessed by measuring the current inhibition in the presence of increasing compound concentrations. […]
(§4) All electrophysiological data (Figure S1) are presented as means ± S.E.M of n ≥ three independent experiments unless otherwise indicated. All data were analyzed using pClamp Clampfit 10.4 (Molecular Devices, Downingtown, PA, USA), OriginPro 9 (Originlab, Northampton, MA, USA), GraphPad Prism 8 software (GraphPad Software, Inc., San Diego, CA, USA) and DataMining (Multi Channel Systems MCS GmbH, Reutlingen, Germany). […]

KV4.2 = KV4.2 (Homo sapiens, UniProt Q9NZV8); test: Selectivity, HiClamp Xenopus laevis heterologous expression system, KV4.2; conditions: oocytes, NA = no significant inhibition, no IC50 determined
Description: as §1, with “After ex vivo translation, the ion channels were correctly inserted in the cell membrane of the oocytes.” left out
as §2, with “injection.” for “injection. The bath solution composition was ND96 (in mM): NaCl, 96; KCl, 2; CaCl2, 1.8; MgCl2, 2 and HEPES, 5 (pH 7.5). Voltage and current electrodes were filled with a 3 M solution of KCl in H2O.”
as §3

KV1.4 = KV1.4 (Homo sapiens, UniProt P22459); test: Selectivity, HiClamp Xenopus laevis heterologous expression system, KV1.4
Description: as §1, §2, §3, §4

KV10.1 = KV10.1 (Homo sapiens, UniProt O95259); test: Selectivity, HiClamp Xenopus laevis heterologous expression system, KV10.1; conditions: at a concentration of the compound's IC50 value for KV1.3
Description: as §1, with “After ex vivo translation, the ion channels were correctly inserted in the cell membrane of the oocytes.” left out
as §2, with “injection.” for “injection. The bath solution composition was ND96 (in mM): NaCl, 96; KCl, 2; CaCl2, 1.8; MgCl2, 2 and HEPES, 5 (pH 7.5). Voltage and current electrodes were filled with a 3 M solution of KCl in H2O.”
as §3

[1] = HiClamp, oocytes, NA = no significant inhibition, no IC50 determined
[2] = at a concentration of the compound's IC50 value for KV1.3

KV1.4, sequence (P22459 whole entry): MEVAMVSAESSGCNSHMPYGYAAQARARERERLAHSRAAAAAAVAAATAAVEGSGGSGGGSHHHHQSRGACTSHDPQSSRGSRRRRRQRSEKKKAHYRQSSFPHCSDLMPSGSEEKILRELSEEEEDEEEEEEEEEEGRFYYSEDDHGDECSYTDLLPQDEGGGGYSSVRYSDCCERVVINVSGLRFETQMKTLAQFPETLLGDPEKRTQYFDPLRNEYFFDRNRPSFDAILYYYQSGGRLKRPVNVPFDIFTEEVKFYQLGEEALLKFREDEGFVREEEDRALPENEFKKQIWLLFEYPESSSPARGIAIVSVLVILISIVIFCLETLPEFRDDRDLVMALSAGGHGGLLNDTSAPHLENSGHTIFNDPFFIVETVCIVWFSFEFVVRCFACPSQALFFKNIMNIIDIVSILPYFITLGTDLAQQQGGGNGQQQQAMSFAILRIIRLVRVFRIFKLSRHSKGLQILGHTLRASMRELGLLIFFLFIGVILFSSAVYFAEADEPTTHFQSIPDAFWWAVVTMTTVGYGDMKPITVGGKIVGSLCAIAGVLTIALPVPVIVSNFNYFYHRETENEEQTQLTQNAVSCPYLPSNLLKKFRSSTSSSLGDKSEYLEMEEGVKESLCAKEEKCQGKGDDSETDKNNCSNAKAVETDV
KV10.1, sequence (O95259 whole entry): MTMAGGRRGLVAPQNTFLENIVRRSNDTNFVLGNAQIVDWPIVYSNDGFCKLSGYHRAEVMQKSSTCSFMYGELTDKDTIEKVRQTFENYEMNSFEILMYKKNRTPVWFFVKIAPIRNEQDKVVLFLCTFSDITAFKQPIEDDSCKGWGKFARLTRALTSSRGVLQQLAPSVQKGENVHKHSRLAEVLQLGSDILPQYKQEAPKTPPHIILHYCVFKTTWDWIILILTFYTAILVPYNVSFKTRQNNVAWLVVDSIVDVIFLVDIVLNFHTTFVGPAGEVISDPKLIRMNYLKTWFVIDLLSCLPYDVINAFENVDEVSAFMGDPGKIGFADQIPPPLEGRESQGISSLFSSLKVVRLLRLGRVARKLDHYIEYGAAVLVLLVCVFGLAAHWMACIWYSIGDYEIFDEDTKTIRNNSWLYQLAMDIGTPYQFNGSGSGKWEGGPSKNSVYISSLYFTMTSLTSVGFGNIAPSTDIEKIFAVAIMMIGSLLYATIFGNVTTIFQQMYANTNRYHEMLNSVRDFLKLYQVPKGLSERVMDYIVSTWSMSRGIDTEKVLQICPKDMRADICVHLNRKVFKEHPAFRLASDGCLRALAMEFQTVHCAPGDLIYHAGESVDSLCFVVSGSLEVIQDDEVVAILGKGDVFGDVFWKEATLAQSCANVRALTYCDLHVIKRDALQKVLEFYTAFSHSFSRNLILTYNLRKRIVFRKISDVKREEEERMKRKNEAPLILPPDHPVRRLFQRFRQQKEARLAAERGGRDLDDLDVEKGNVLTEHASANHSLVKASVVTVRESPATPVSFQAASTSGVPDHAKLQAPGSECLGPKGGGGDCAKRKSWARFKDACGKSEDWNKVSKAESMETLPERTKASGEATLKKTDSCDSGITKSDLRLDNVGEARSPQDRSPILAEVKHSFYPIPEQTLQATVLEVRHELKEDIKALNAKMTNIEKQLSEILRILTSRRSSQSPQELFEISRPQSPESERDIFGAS
KV4.2, sequence (Q9NZV8 whole entry): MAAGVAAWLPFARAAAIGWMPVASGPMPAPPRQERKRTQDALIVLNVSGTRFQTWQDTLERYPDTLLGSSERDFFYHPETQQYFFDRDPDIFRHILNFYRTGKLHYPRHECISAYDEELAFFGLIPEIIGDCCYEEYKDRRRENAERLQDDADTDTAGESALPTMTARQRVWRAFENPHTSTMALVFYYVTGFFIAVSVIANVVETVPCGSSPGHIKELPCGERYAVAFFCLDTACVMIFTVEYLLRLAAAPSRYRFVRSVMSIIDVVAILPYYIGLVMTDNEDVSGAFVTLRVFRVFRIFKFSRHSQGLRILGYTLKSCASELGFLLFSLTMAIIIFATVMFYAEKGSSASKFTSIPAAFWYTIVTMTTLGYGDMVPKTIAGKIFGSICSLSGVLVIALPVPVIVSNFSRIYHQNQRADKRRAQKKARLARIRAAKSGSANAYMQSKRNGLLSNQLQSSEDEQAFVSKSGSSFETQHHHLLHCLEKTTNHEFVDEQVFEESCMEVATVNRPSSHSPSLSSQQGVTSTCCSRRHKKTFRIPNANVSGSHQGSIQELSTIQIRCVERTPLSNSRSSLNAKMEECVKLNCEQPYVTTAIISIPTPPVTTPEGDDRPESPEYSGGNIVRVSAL

Row | SMILES | IC50 (KV2.1; [1]) [µM] | IC50 (KV4.2) [µM] | IC50 (KV1.4; [1]) [µM] | inhibition of KV1.4 (KV1.4; [2]) [%] | Effect on KV2.1 channel (KV2.1; [2]) | Effect on KV10.1 channel (KV10.1)
1 | COc1ccccc1C(=O)NCC1(c2cccs2)CCOC1 (stereo not drawn) [Compound 14] | 6.45 ± 0.42 | 2.41 ± 0.88 |  |  |  | 
2 | COc1ccccc1C(=O)NCC1(c2ccsc2)CCOCC1 [Compound 44] |  |  | 8.48 ± 2.21 | ~16 | no significant effects | no significant effects
